Data from patent US9133207B2, “Tetrandrine derivatives with substituted 5-carbon, preparation method and use thereof” (Hangzhou Bensheng Pharmaceutical Co., Ltd., priority 2011, dated 2015).
In brackets after ≈: the same amount, converted by molar mass.

Assays:
[1] = tested on: MG63 (osteosarcoma); assay: Solid tumor cell growth inhibition, MTT, 72 h (Example 7); assay type: cell-based, human; details: Homo sapiens; 72 h, MTT, MG-63
How it was run: (§1)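 MTT read-out of viable cells after 72 h compound treatment, reported as percent viability versus untreated control (100%). Cells seeded at 4000 per well, grown 24 h beforehand in 10% FBS DMEM high glucose, 37 °C, 5% CO2.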

[2] = tested on: PC-3 (prostate cancer); assay: as above; assay type: cell-based, human; details: Homo sapiens; 72 h, MTT, PC-3
How it was run: as §1

[3] = tested on: PANC-1 (pancreatic cancer); assay: as above; assay type: cell-based, human; details: Homo sapiens; 72 h, MTT, PANC-1
How it was run: as §1

[4] = tested on: CaES-17 (esophageal cancer cell); assay: as above; assay type: cell-based, human; details: Homo sapiens, CaEs17; 72 h, MTT, CAES-17
How it was run: as §1

[5] = tested on: H9 (acute lymphoblastic leukemia, ALL); assay: Leukemia cell growth inhibition, MTT, 72 h (Example 5); assay type: cell-based, human; details: Homo sapiens; 72 h, MTT
How it was run: (§2)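 Viability read by MTT after 72 h of compound treatment at 37 °C under 5% CO2; each well seeded with 6000 cells in 1640 medium plus 10% fetal bovine serum, compounds at several concentrations.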

[6] = tested on: NB4 (acute promyelocytic leukemia, AML); assay: as above; assay type: cell-based, human; details: Homo sapiens; 72 h, MTT
How it was run: as §2

[7] = tested on: Kasumi-1 (acute myeloid leukemia M2 type, AML-M2); assay: as above; assay type: cell-based, human; details: Homo sapiens, Kasumi 1
How it was run: as §2

[8] = tested on: K562/adr (drug-resistant, chronic myeloid leukemia, CML); assay: as above; assay type: cell-based, human; details: Homo sapiens, K562/Adr; 72 h, MTT
How it was run: as §2

[9] = tested on: Jurkat (acute lymphoblastic leukemia, ALL); assay: as above; assay type: cell-based, human; details: Homo sapiens, Jurkat; 72 h, MTT
How it was run: as §2

[10] = tested on: RKO (human colon adenocarcinoma cell); assay: Solid tumor cell growth inhibition, MTT, 72 h (Example 7); assay type: cell-based; details: Homo sapiens; 72 h, MTT, RKO
How it was run: as §1

[11] = tested on: Huh7 (human liver cancer cell); assay: as above; assay type: cell-based; details: Homo sapiens; 72 h, MTT, Huh-7
How it was run: as §1

[12] = tested on: Becap37 (human breast cancer cell); assay: as above; assay type: cell-based; details: Homo sapiens; 72 h, MTT, Becap-37
How it was run: as §1

[13] = tested on: A549 (human lung cancer); assay: as above; assay type: cell-based; details: Homo sapiens; 72 h, MTT, A549
How it was run: as §1

[14] = tested on: MGC 803 (human gastric cancer cell); assay: as above; assay type: cell-based; details: Homo sapiens
How it was run: as §1

[15] = tested on: RPMI8226 (multiple myeloma); assay: Multiple myeloma cell growth inhibition, MTT, 72 h (Example 6); assay type: cell-based, human; details: Homo sapiens, RPMI-8226; 72 h, MTT, RPMI8226
How it was run: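 Viability was read by MTT after 72 h of compound exposure at 37 °C, 5% CO2. Each well held 6000 RPMI8226 cells in 1640 medium containing 10% fetal bovine serum, with derivatives added at various concentrations.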

| IC50 [1] [µg/mL] | IC90 [1] [µg/mL] | IC50 [2] [µg/mL] | IC90 [2] [µg/mL] | IC50 [3] [µg/mL] | IC90 [3] [µg/mL] | IC50 [4] [µg/mL] | IC90 [4] [µg/mL] | IC50 [5] [µg/mL] | IC90 [5] [µg/mL] | IC50 [6] [µg/mL] | IC90 [6] [µg/mL] | IC50 [7] [µg/mL] | IC90 [7] [µg/mL] | IC50 [8] [µg/mL] | IC90 [8] [µg/mL] | IC50 [9] [µg/mL] | IC90 [9] [µg/mL] | IC50 [10] [µg/mL] | IC90 [10] [µg/mL] | Compound | also measured |
| --- | --- | --- | --- | --- | --- | --- | --- | --- | --- | --- | --- | --- | --- | --- | --- | --- | --- | --- | --- | --- | --- |
| 1.52 (≈ 2.05 µM) | 4.06 (≈ 5.46 µM) | 4.44 (≈ 5.98 µM) | 8.36 (≈ 11.3 µM) | 4.55 (≈ 6.12 µM) | 13.9 (≈ 18.7 µM) | 2.3 (≈ 3.1 µM) | 14.5 (≈ 19.6 µM) | 1.33 (≈ 1.79 µM) | 2.97 (≈ 4 µM) | 1.14 (≈ 1.53 µM) | 4.78 (≈ 6.43 µM) | 1.96 (≈ 2.64 µM) | 7.37 (≈ 9.92 µM) | 1.45 (≈ 1.95 µM) | 5.7 (≈ 7.67 µM) | 1.82 (≈ 2.45 µM) | 9.94 (≈ 13.4 µM) | 1.77 (≈ 2.38 µM) | 3.83 (≈ 5.16 µM) | COc1ccc2cc1Oc1ccc(cc1)C[C@H]1c3cc(c(OC)cc3CCN1C)Oc1c(OC)c(OC)c(CNCc3cccnc3)c3c1[C@H](C2)N(C)CC3 [BS-TE-348] | IC50 [11]: 3.05 µg/mL (≈ 4.11 µM); IC90 [11]: 8 µg/mL (≈ 10.8 µM); IC50 [12]: 3.84 µg/mL (≈ 5.17 µM); IC90 [12]: 13.6 µg/mL (≈ 18.3 µM); IC50 [13]: 9.94 µg/mL (≈ 13.4 µM); IC90 [13]: > 16 µg/mL; IC50 [14]: 1.93 µg/mL (≈ 2.6 µM); IC90 [14]: 5.53 µg/mL (≈ 7.44 µM); IC50 [15]: 0.09 µg/mL (≈ 0.121 µM); IC90 [15]: 1 µg/mL (≈ 1.35 µM) |
| 5.13 (≈ 7.38 µM) | 7.64 (≈ 11 µM) | 5.6 (≈ 8.06 µM) | 28 (≈ 40.3 µM) | 10.7 (≈ 15.4 µM) | 16 (≈ 23 µM) | 9.8 (≈ 14.1 µM) | 37.5 (≈ 54 µM) | 4.19 (≈ 6.03 µM) | 8.89 (≈ 12.8 µM) | 2.57 (≈ 3.7 µM) | 7.42 (≈ 10.7 µM) | 2 (≈ 2.88 µM) | 8 (≈ 11.5 µM) | 0.5 (≈ 0.72 µM) | 9.91 (≈ 14.3 µM) | 3.42 (≈ 4.92 µM) | 11.3 (≈ 16.2 µM) | 4.23 (≈ 6.09 µM) | 7.5 (≈ 10.8 µM) | COc1ccc2cc1Oc1ccc(cc1)C[C@H]1c3cc(c(OC)cc3CCN1C)Oc1c(OC)c(OC)c(COC(C)=O)c3c1[C@H](C2)N(C)CC3 [BS-TE-223] | IC50 [11]: 4.14 µg/mL (≈ 5.96 µM); IC90 [11]: 7.97 µg/mL (≈ 11.5 µM); IC50 [12]: 6.77 µg/mL (≈ 9.74 µM); IC90 [12]: 15 µg/mL (≈ 21.6 µM); IC50 [13]: 4.45 µg/mL (≈ 6.4 µM); IC90 [13]: 14.2 µg/mL (≈ 20.4 µM); IC50 [14]: 3.54 µg/mL (≈ 5.09 µM); IC90 [14]: 38.1 µg/mL (≈ 54.8 µM); IC50 [15]: 0.23 µg/mL (≈ 0.331 µM); IC90 [15]: 2.29 µg/mL (≈ 3.3 µM) |
| 1 (≈ 1.39 µM) | 2.24 (≈ 3.1 µM) | 2.26 (≈ 3.13 µM) | 4.06 (≈ 5.62 µM) | 3.29 (≈ 4.56 µM) | 5.41 (≈ 7.49 µM) | 1.58 (≈ 2.19 µM) | 9.61 (≈ 13.3 µM) | 1.08 (≈ 1.5 µM) | 2.19 (≈ 3.03 µM) | 0.83 (≈ 1.15 µM) | 3.48 (≈ 4.82 µM) | 1.22 (≈ 1.69 µM) | 3.83 (≈ 5.31 µM) | 1.1 (≈ 1.52 µM) | 3.24 (≈ 4.49 µM) | 1.67 (≈ 2.31 µM) | 3.97 (≈ 5.5 µM) | 0.9 (≈ 1.25 µM) | 2.4 (≈ 3.32 µM) | COc1ccc2cc1Oc1ccc(cc1)C[C@H]1c3cc(c(OC)cc3CCN1C)Oc1c(OC)c(OC)c(CN3CCC(O)C3)c3c1[C@H](C2)N(C)CC3 (stereo partly drawn) [BS-TE-322] | IC50 [11]: 1.42 µg/mL (≈ 1.97 µM); IC90 [11]: 1.94 µg/mL (≈ 2.69 µM); IC50 [12]: 2.31 µg/mL (≈ 3.2 µM); IC90 [12]: 4 µg/mL (≈ 5.54 µM); IC50 [13]: 1.83 µg/mL (≈ 2.53 µM); IC90 [13]: 6.34 µg/mL (≈ 8.78 µM); IC50 [14]: 2.29 µg/mL (≈ 3.17 µM); IC90 [14]: > 10 µg/mL; IC50 [15]: 0.14 µg/mL (≈ 0.194 µM); IC90 [15]: 0.7 µg/mL (≈ 0.97 µM) |
| 0.84 (≈ 1.1 µM) | 2.44 (≈ 3.19 µM) | 3.35 (≈ 4.38 µM) | 6.05 (≈ 7.91 µM) | 3.99 (≈ 5.22 µM) | 11 (≈ 14.4 µM) | 2.35 (≈ 3.07 µM) | 21.5 (≈ 28.1 µM) | 1.3 (≈ 1.7 µM) | 2.4 (≈ 3.14 µM) | > 16 | > 16 | 1.06 (≈ 1.39 µM) | 3.64 (≈ 4.76 µM) | 1.49 (≈ 1.95 µM) | 5.99 (≈ 7.83 µM) | 1.88 (≈ 2.46 µM) | 7.85 (≈ 10.3 µM) | 0.82 (≈ 1.07 µM) | 2.04 (≈ 2.67 µM) | COc1ccc2cc1Oc1ccc(cc1)C[C@H]1c3cc(c(OC)cc3CCN1C)Oc1c(OC)c(OC)c(CN3CCN(CCO)CC3)c3c1[C@H](C2)N(C)CC3 [BS-TE-334] | IC50 [11]: 2.55 µg/mL (≈ 3.33 µM); IC90 [11]: 4.38 µg/mL (≈ 5.73 µM); IC50 [12]: 3.09 µg/mL (≈ 4.04 µM); IC90 [12]: 8.39 µg/mL (≈ 11 µM); IC50 [13]: 4 µg/mL (≈ 5.23 µM); IC90 [13]: 14.6 µg/mL (≈ 19.1 µM); IC50 [14]: 2.22 µg/mL (≈ 2.9 µM); IC90 [14]: 10 µg/mL (≈ 13.1 µM); IC50 [15]: 0.05 µg/mL (≈ 0.0654 µM); IC90 [15]: 1.11 µg/mL (≈ 1.45 µM) |
